Data published in ChEMBL document CHEMBL4507268 (2021).

What was measured:
Conditions in all cases: Compound concentration 1.0 uM
[1] = biological target: Tyrosine-protein kinase CSK (Homo sapiens) (UniProt P41240)
[2] = biological target: T1, Serine/threonine-protein kinase 17B (Homo sapiens) (UniProt O94768)
T1 sequence (whole entry): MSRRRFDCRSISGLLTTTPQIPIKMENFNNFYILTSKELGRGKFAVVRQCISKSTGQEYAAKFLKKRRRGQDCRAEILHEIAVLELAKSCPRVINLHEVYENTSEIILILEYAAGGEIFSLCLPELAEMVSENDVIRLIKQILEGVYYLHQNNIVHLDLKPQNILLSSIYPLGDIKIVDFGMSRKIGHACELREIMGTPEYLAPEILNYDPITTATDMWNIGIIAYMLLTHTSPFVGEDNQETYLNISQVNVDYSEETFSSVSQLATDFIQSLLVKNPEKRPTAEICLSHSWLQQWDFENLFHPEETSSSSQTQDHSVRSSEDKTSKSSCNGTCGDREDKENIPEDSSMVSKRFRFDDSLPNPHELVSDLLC

[3] = biological target: T2, Dual specificity tyrosine-phosphorylation-regulated kinase 2 (Homo sapiens) (UniProt Q92630)
T2 sequence (whole entry): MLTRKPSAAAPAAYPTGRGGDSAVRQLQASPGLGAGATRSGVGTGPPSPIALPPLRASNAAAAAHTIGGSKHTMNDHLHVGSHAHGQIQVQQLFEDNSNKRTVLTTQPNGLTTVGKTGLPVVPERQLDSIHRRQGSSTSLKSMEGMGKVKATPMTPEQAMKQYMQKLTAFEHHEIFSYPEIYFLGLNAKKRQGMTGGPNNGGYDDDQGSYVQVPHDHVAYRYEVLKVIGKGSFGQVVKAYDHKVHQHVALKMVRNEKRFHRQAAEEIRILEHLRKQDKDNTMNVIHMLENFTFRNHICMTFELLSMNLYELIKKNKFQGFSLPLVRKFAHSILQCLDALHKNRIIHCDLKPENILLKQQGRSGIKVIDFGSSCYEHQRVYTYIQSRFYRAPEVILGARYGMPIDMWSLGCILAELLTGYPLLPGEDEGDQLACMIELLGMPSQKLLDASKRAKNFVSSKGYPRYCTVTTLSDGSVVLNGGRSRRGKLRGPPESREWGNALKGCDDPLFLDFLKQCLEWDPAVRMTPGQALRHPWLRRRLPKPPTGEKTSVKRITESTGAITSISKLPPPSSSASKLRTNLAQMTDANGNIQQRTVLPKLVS

[4] = biological target: Dual specificity tyrosine-phosphorylation-regulated kinase 3 (Homo sapiens) (UniProt O43781)
Chain of Dual specificity tyrosine-phosphorylation-regulated kinase 3 (Homo sapiens) (O43781 whole entry): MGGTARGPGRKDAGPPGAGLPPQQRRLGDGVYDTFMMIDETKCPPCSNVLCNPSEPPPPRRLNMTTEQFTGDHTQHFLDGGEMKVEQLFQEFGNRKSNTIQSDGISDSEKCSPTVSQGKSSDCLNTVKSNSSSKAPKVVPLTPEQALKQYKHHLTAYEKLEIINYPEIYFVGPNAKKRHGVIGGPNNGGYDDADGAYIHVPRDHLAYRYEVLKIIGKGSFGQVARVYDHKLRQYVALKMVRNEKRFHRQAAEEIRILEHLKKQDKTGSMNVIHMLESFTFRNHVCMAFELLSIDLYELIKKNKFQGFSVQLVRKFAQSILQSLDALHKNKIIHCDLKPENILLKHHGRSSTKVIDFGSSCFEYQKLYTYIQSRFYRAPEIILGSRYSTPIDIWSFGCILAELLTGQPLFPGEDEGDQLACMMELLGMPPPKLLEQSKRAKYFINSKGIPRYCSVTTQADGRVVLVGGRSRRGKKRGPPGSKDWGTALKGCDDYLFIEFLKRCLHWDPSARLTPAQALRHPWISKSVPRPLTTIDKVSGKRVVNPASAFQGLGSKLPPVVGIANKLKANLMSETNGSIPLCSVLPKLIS

[5] = biological target: Eukaryotic elongation factor 2 kinase (Homo sapiens) (UniProt O00418)
[6] = biological target: Ephrin type-A receptor 2 (Homo sapiens) (UniProt P29317)
Chain of Ephrin type-A receptor 2 (Homo sapiens) (P29317 whole entry): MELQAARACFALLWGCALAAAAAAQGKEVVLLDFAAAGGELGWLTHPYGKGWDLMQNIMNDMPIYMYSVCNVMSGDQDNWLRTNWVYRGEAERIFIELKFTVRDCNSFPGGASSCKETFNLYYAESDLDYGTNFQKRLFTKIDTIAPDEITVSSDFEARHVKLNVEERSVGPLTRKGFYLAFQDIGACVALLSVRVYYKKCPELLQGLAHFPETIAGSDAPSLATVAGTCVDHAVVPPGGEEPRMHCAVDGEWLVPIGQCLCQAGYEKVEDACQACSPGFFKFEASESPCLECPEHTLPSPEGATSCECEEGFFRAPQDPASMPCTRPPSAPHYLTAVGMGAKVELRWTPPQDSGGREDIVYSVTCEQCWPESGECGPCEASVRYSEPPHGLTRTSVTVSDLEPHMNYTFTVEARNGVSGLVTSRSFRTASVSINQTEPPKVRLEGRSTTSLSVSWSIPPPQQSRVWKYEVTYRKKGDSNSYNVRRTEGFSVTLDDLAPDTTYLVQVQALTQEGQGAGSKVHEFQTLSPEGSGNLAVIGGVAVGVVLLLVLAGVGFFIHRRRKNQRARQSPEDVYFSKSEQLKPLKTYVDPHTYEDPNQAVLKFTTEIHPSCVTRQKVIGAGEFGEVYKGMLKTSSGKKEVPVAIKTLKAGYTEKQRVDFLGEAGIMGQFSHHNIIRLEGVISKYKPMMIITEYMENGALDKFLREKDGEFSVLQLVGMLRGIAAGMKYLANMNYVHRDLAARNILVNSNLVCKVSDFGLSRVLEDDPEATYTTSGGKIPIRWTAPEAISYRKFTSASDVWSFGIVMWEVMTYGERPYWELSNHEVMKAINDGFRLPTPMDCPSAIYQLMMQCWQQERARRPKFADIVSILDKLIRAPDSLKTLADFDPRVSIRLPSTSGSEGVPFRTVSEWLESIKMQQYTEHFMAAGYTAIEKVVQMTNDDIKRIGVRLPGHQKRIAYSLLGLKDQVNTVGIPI

[7] = biological target: Fibroblast growth factor receptor 1 (Homo sapiens) (UniProt P11362)
[8] = biological target: Insulin-like growth factor 1 receptor (Homo sapiens) (UniProt P08069)
[9] = biological target: Leucine-rich repeat serine/threonine-protein kinase 2 (Homo sapiens) (UniProt Q5S007)
[10] = biological target: Serine/threonine-protein kinase MRCK beta (Homo sapiens) (UniProt Q9Y5S2)
Chain of Serine/threonine-protein kinase MRCK beta (Homo sapiens) (Q9Y5S2 whole entry): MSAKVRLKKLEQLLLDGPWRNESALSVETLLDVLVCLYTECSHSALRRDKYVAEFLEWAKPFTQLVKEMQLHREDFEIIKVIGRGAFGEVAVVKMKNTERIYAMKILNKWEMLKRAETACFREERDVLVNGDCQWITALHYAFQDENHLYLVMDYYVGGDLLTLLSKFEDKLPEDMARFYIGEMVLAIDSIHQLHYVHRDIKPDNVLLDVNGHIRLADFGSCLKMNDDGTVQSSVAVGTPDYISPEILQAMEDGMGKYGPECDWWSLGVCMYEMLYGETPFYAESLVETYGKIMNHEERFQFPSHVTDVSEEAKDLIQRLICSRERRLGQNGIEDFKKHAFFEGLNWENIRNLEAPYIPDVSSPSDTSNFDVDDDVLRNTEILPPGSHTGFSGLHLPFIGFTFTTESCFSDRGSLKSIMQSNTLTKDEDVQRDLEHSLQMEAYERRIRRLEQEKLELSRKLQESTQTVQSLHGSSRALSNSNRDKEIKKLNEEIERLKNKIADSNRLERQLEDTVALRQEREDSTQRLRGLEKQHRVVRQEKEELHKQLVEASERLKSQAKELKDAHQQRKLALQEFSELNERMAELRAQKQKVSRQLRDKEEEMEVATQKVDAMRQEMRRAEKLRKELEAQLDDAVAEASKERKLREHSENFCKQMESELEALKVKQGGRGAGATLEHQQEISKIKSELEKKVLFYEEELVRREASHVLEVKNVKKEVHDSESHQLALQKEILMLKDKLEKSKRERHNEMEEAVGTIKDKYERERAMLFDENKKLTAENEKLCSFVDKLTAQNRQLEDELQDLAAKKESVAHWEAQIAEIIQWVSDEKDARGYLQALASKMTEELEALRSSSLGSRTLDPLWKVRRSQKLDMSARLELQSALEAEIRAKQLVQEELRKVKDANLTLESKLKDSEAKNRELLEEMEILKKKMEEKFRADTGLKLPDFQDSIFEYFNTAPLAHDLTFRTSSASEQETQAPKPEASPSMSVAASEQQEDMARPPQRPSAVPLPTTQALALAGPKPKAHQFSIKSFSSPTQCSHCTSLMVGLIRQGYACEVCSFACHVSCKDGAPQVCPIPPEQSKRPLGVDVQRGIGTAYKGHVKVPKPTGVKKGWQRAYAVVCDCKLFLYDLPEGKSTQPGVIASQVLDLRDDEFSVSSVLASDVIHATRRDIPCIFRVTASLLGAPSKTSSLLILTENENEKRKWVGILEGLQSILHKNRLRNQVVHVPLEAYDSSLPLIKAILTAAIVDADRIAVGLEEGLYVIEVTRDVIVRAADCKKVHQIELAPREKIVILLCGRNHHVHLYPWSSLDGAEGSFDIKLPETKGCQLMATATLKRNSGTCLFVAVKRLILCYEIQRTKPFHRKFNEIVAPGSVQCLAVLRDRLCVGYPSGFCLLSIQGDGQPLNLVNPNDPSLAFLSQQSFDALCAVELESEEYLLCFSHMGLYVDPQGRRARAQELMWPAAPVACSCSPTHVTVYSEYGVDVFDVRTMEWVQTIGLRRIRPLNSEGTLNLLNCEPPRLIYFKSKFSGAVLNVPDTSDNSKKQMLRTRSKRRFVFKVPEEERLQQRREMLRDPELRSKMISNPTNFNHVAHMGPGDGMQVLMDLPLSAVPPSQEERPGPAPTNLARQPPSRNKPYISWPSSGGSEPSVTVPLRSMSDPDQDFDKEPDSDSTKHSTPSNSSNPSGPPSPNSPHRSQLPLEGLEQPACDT

[11] = biological target: mTOR/FKBP12A/FKBP12B (Homo sapiens) (UniProt P62942+P68106+P42345)
Chain of mTOR/FKBP12A/FKBP12B (Homo sapiens) (P62942 2-108 limits assumed, other chains not shown): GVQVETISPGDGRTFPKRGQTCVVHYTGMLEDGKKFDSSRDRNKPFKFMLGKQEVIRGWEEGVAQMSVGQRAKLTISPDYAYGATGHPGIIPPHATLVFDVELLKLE
Chain of mTOR/FKBP12A/FKBP12B (Homo sapiens) (P68106 whole entry partner, other chains not shown): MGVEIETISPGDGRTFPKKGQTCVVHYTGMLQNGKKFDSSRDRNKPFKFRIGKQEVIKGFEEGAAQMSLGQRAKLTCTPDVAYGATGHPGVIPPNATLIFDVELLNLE

[12] = biological target: Serine/threonine-protein kinase NIM1 (Homo sapiens) (UniProt Q8IY84)
[13] = biological target: Serine/threonine-protein kinase PAK 3 (Homo sapiens) (UniProt O75914)
Chain of Serine/threonine-protein kinase PAK 3 (Homo sapiens) (O75914 whole entry, looked up): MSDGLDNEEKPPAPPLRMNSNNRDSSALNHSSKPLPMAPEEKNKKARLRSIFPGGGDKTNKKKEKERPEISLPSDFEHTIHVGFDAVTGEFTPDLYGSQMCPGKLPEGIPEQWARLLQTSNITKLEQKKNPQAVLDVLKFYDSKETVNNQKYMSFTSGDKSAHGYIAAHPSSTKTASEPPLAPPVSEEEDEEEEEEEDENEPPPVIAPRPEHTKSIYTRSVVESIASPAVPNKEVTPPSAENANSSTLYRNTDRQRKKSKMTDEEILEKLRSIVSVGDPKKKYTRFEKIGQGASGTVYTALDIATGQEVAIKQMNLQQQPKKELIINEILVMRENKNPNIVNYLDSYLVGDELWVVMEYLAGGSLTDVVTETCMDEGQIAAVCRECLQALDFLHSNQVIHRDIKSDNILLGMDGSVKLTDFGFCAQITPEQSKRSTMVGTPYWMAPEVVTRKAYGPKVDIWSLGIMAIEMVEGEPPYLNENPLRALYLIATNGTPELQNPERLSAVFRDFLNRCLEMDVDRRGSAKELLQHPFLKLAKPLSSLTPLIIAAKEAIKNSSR

[14] = biological target: Serine/threonine-protein kinase 32B (Homo sapiens) (UniProt Q9NY57)
Chain of Serine/threonine-protein kinase 32B (Homo sapiens) (Q9NY57 whole entry): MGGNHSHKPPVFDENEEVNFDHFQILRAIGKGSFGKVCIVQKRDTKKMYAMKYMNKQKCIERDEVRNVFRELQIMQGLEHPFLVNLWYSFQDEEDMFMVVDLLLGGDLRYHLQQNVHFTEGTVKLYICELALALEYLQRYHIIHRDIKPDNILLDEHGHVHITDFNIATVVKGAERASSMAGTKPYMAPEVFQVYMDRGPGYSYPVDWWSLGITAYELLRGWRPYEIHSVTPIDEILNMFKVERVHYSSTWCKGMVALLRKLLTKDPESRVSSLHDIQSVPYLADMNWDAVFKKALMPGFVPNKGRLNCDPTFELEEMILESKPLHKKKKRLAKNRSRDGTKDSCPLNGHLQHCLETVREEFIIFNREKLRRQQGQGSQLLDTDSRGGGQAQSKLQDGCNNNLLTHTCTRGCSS

[15] = biological target: Transcription initiation factor TFIID subunit 1-like (Homo sapiens) (UniProt Q8IZX4)
[16] = biological target: T3, Serine/threonine-protein kinase TAO1 (Homo sapiens) (UniProt Q7L7X3)
T3 sequence (whole entry): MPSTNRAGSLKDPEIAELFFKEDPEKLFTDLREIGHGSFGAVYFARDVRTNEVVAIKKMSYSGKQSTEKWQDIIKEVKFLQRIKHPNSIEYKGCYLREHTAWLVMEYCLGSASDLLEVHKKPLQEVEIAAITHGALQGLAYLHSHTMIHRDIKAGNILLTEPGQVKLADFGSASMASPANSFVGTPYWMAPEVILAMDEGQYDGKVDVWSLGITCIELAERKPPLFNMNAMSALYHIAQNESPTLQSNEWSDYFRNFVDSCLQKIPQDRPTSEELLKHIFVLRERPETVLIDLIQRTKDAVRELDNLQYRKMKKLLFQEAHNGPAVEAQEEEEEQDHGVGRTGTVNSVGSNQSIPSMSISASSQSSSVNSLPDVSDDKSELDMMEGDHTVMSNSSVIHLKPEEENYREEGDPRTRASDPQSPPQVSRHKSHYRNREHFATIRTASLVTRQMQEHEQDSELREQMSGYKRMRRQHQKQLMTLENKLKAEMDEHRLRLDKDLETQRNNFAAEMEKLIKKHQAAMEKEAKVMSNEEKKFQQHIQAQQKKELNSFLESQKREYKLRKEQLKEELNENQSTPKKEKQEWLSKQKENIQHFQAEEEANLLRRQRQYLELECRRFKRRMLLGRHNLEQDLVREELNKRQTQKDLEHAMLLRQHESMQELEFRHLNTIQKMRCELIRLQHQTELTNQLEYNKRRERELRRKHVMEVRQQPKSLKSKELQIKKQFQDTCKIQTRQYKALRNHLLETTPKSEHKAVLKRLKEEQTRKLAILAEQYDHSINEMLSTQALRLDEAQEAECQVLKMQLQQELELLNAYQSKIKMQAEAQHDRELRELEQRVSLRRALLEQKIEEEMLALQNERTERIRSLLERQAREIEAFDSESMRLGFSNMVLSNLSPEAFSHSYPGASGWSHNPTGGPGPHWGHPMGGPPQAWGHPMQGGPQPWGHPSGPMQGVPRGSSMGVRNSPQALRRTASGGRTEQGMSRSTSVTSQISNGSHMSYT

[17] = biological target: Phosphatidylinositol 4-phosphate 5-kinase type-1 alpha (Homo sapiens) (UniProt Q99755)
Chain of Phosphatidylinositol 4-phosphate 5-kinase type-1 alpha (Homo sapiens) (Q99755 whole entry): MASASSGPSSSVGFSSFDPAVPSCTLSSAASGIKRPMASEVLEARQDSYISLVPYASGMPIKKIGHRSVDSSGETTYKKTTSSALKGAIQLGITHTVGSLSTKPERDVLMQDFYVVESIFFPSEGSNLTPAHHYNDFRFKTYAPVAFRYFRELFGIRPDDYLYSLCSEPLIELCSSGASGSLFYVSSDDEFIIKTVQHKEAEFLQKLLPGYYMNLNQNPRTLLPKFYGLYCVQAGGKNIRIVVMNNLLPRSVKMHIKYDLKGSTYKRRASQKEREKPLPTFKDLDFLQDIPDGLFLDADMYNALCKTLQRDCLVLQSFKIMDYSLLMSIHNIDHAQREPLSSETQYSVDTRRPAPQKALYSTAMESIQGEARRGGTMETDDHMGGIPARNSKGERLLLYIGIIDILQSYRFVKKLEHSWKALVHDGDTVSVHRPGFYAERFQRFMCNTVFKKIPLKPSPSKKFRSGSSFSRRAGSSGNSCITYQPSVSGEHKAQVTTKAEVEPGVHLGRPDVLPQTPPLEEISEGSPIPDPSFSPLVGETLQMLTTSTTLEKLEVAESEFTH

Measured: % residual kinase activity

CN1CCN(c2cnc3c(C4CCN(C(=O)c5ccc(OC(F)(F)F)cc5N)CC4)ncnc3c2)CC1 [BAY-885]
inactive: [1] 102% | [2] 117% | [3] 105% | [4] 103% | [5] 113% | [6] 100% | [7] 101% | [8] 90% | [9] 102% | [10] 110% | [11] 101% | [12] 108% | [13] 106% | [14] 98% | [15] 120% | [16] 100% | [17] 98%
